Experiment [1] has as its target HCV NS3/4A protease genotype 1b (Hepatitis C virus genotype 1b, UniProt P26663). Kind of experiment: HCV NS3/4A protease time-resolved fluorescence (TRF) assay, Ki against genotype 1b. Format: biochemical. Conditions: IC50 [gt-1b] (nM), NS3/4A genotype 1b, enzyme 0.2 nM. A digest of the protocol: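 Ki values come from IC50 fits corrected for substrate concentration and KM. The time-resolved fluorescence protease reaction used 25 nM peptide substrate, 2.5 h, room temperature, pH 7.5 HEPES buffer, after 30 min enzyme–inhibitor preincubation.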

The subject of a further experiment is HCV genotype 1b replicon. The experiment in a line: HCV replicon assay, genotype 1b replicon EC50. Format: cell-based, Hepatitis C virus. Conditions: Hepatitis C virus, genotype 1b replicon; read-out: EC50 [gt-1b]. In outline:
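Stable neomycin phosphotransferase-encoding replicon cell lines, kept under G418 selection beforehand, were plated with a compound dilution series without G418 and incubated 24-48 hours. Replicon RNA was then quantified, or luciferase activity read. EC50 was calculated as percent of DMSO control by four-parameter fit.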
(In general: A replicon is a self-replicating genome or part of one, used to study replication in cells.)

This passage reports IC50 and EC50 results from patent US8987195B2 (priority 2012, dated 2015).

The term IC50 denotes the concentration that inhibits the measured activity by half. As usually defined, the EC50 is the concentration needed to bring the measured effect to its halfway point.

HCV NS3/4A protease genotype 1b, sequence (P26663 1027-1657): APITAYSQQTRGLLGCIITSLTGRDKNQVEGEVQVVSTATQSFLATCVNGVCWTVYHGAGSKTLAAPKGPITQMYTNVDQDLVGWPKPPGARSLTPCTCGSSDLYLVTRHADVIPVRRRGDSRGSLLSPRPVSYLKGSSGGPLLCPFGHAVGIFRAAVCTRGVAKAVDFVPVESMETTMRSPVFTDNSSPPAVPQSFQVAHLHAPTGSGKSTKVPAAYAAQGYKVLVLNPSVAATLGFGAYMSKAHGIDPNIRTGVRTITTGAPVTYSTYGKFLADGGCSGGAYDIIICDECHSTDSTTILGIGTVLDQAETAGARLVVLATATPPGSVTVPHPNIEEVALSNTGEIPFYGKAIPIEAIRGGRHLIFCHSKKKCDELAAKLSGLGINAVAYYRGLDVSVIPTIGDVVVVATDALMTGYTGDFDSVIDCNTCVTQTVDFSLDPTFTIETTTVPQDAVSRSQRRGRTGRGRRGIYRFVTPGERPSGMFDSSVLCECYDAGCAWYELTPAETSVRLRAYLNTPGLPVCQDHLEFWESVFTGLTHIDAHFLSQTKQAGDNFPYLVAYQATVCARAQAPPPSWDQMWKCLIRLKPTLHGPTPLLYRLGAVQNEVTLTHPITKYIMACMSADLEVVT
HCV NS3/4A protease genotype 1b, sequence (P26663 1658-1711): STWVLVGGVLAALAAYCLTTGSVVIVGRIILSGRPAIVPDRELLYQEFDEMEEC

`COc1ccc2nc(C3CC3)c3c(c2c1)CC[C@]1(C[C@H]2C(=O)N[C@]4(C(=O)NS(=O)(=O)C5(C)CC5)C[C@H]4/C=C\CCCCC[C@H](NC(=O)OC(C)C)C(=O)N2C1)O3` [Example 94, propan-2-yl [(2R,6S,12Z,13aS,14aR,16aS)-5′-cyclopropyl-9′-methoxy-14a-{[(1-methylcyclopropyl)sulfonyl]carbamoyl}-5,16-dioxo-1,1′,2′,5,6,7,8,9,10,11,13a,14,14a,15,16,16a-hexadecahydrospiro[cyclopropa[e]pyrrolo[1,2-a][1,4]diazacyclopentadecine-2,3′-pyrano[2,3-c]quinolin]-6-yl]carbamate] showed an IC50 in experiment [1] of 0.003 nM. In addition, in the experiment with HCV genotype 1b replicon, the EC50 was 0.61 nM.
The corresponding values for `Cc1nc2c(C(F)(F)F)cccc2c2c1O[C@]1(CC2)C[C@H]2C(=O)N[C@]3(C(=O)NS(=O)(=O)C4CC4)C[C@H]3/C=C\CCCCC[C@H](NC(=O)OC(C)(C)C)C(=O)N2C1` [Example 95, tert-butyl [(2R,6S,12Z,13aS,14aR,16aS)-14a-[(cyclopropylsulfonyl)carbamoyl]-5′-methyl-5,16-dioxo-7′-(trifluoromethyl)-1,1′,2′,5,6,7,8,9,10,11,13a,14,14a,15,16,16a-hexadecahydrospiro[cyclopropa[e]pyrrolo[1,2-a][1,4]diazacyclopentadecine-2,3′-pyrano[2,3-c]quinolin]-6-yl]carbamate] are 0.993 nM and 5.24 nM.
`Cc1nc2ccccc2c2c1O[C@]1(CC2)C[C@H]2C(=O)N[C@]3(C(=O)NS(=O)(=O)C4(C)CC4)C[C@H]3/C=C\CCCCC[C@H](NC(=O)OC3CCCC3)C(=O)N2C1` [Example 96, cyclopentyl [(2R,6S,12Z,13aS,14aR,16aS)-5′-methyl-14a-{[(1-methylcyclopropyl)sulfonyl]carbamoyl}-5,16-dioxo-1,1′,2′,5,6,7,8,9,10,11,13a,14,14a,15,16,16a-hexadecahydrospiro[cyclopropa[e]pyrrolo[1,2-a][1,4]diazacyclopentadecine-2,3′-pyrano[2,3-c]quinolin]-6-yl]carbamate] had an IC50 in experiment [1] of 0.01 nM. Moreover, the concentration for a half-maximal effect (EC50) with HCV genotype 1b replicon was determined as 0.796 nM.
The corresponding values for `Cc1nc2ccccc2c2c1O[C@]1(CC2)C[C@H]2C(=O)N[C@]3(C(=O)NS(=O)(=O)C4(C)CC4)C[C@H]3/C=C\CCCCC[C@H](NC(=O)OCC(C)C)C(=O)N2C1` [Example 97, 2-methylpropyl [(2R,6S,12Z,13aS,14aR,16aS)-5′-methyl-14a-{[(1-methylcyclopropyl)sulfonyl]carbamoyl}-5,16-dioxo-1,1′,2′,5,6,7,8,9,10,11,13a,14,14a,15,16,16a-hexadecahydrospiro[cyclopropa[e]pyrrolo[1,2-a][1,4]diazacyclopentadecine-2,3′-pyrano[2,3-c]quinolin]-6-yl]carbamate] are 0.016 nM and 1.94 nM.
The corresponding values for `CC(C)(C)OC(=O)N[C@H]1CCCCC/C=C\[C@@H]2C[C@@]2(C(=O)NS(=O)(=O)C2CC2)NC(=O)[C@@H]2C[C@]3(CCc4c(cnc5ccccc45)O3)CN2C1=O` [Example 98, tert-butyl {(2R,6S,12Z,13aS,14aR,16aS)-14a-[(cyclopropylsulfonyl)carbamoyl]-5,16-dioxo-1,1′,2′,5,6,7,8,9,10,11,13a,14,14a,15,16,16a-hexadecahydrospiro[cyclopropa[e]pyrrolo[1,2-a][1,4]diazacyclopentadecine-2,3′-pyrano[2,3-c]quinolin]-6-yl}carbamate] are 0.057 nM and 9.72 nM.
The corresponding values for `CC(C)(C)OC(=O)N[C@H]1CCCCC/C=C\[C@@H]2C[C@@]2(C(=O)NS(=O)(=O)C2(C)CC2)NC(=O)[C@@H]2C[C@]3(CCc4c(cnc5ccccc45)O3)CN2C1=O` [Example 99, tert-butyl [(2R,6S,12Z,13aS,14aR,16aS)-14a-{[(1-methylcyclopropyl)sulfonyl]carbamoyl}-5,16-dioxo-1,1′,2′,5,6,7,8,9,10,11,13a,14,14a,15,16,16a-hexadecahydrospiro[cyclopropa[e]pyrrolo[1,2-a][1,4]diazacyclopentadecine-2,3′-pyrano[2,3-c]quinolin]-6-yl]carbamate] are 0.033 nM and 4.53 nM.
For the compound `COc1ccc2nc(C3CC3)c3c(c2c1)CC[C@]1(C[C@H]2C(=O)N[C@]4(C(=O)NS(=O)(=O)C5(C)CC5)C[C@H]4/C=C\CCCCC[C@H](NC(=O)OCC(C)C)C(=O)N2C1)O3` [Example 100, 2-methylpropyl [(2R,6S,12Z,13aS,14aR,16aS)-5′-cyclopropyl-9′-methoxy-14a-{[(1-methylcyclopropyl)sulfonyl]carbamoyl}-5,16-dioxo-1,1′,2′,5,6,7,8,9,10,11,13a,14,14a,15,16,16a-hexadecahydrospiro[cyclopropa[e]pyrrolo[1,2-a][1,4]diazacyclopentadecine-2,3′-pyrano[2,3-c]quinolin]-6-yl]carbamate], in experiment [1], half-maximal inhibition (IC50) required 0.011 nM. Further, in the experiment on HCV genotype 1b replicon, the EC50 amounted to 2.08 nM.
The corresponding values for `CC(C)(C)OC(=O)N[C@H]1CCCCC/C=C\[C@@H]2C[C@@]2(C(=O)O)NC(=O)[C@@H]2C[C@]3(CCc4c(cnc5ccccc45)O3)CN2C1=O` [Example 101, (2R,6S,12Z,13aS,14aR,16aS)-6-[(tert-butoxycarbonyl)amino]-5,16-dioxo-1,1′,2′,6,7,8,9,10,11,13a,14,15,16,16a-tetradecahydrospiro[cyclopropa[e]pyrrolo[1,2-a][1,4]diazacyclopentadecine-2,3′-pyrano[2,3-c]quinoline]-14a(5H)-carboxylic acid] are 38.2 nM and > 100 nM.
The like results for `CC1(OC(=O)N[C@H]2CCCCC/C=C\[C@@H]3C[C@@]3(C(=O)NS(=O)(=O)C3(C)CC3)NC(=O)[C@@H]3C[C@]4(CCc5c(c(C6CC6)nc6ccccc56)O4)CN3C2=O)CC1` [Example 102, 1-methylcyclopropyl [(2R,6S,12Z,13aS,14aR,16aS)-5′-cyclopropyl-14a-{[(1-methylcyclopropyl)sulfonyl]carbamoyl}-5,16-dioxo-1,1′,2′,5,6,7,8,9,10,11,13a,14,14a,15,16,16a-hexadecahydrospiro[cyclopropa[e]pyrrolo[1,2-a][1,4]diazacyclopentadecine-2,3′-pyrano[2,3-c]quinolin]-6-yl]carbamate] were, in that order, 0.004 nM and 1.58 nM.
The like results for `CC(C)COC(=O)N[C@H]1CCCCC/C=C\[C@@H]2C[C@@]2(C(=O)NS(=O)(=O)C2(C)CC2)NC(=O)[C@@H]2C[C@]3(CCc4c(c(C5CC5)nc5ccccc45)O3)CN2C1=O` [Example 103, 2-methylpropyl [(2R,6S,12Z,13aS,14aR,16aS)-5′-cyclopropyl-14a-{[(1-methylcyclopropyl)sulfonyl]carbamoyl}-5,16-dioxo-1,1′,2′,5,6,7,8,9,10,11,13a,14,14a,15,16,16a-hexadecahydrospiro[cyclopropa[e]pyrrolo[1,2-a][1,4]diazacyclopentadecine-2,3′-pyrano[2,3-c]quinolin]-6-yl]carbamate] were, in that order, 0.012 nM and 1.51 nM.
`CC1(S(=O)(=O)NC(=O)[C@@]23C[C@H]2/C=C\CCCCC[C@H](NC(=O)OC2CCCC2)C(=O)N2C[C@@]4(CCc5c(c(C6CC6)nc6ccccc56)O4)C[C@H]2C(=O)N3)CC1` [Example 104, cyclopentyl [(2R,6S,12Z,13aS,14aR,16aS)-5′-cyclopropyl-14a-{[(1-methylcyclopropyl)sulfonyl]carbamoyl}-5,16-dioxo-1,1′,2′,5,6,7,8,9,10,11,13a,14,14a,15,16,16a-hexadecahydrospiro[cyclopropa[e]pyrrolo[1,2-a][1,4]diazacyclopentadecine-2,3′-pyrano[2,3-c]quinolin]-6-yl]carbamate] had an IC50 in experiment [1] of 0.013 nM. Moreover, the 50% effective concentration (EC50) in the experiment with HCV genotype 1b replicon was determined as 1.39 nM.
The like results for `Cc1nc2ccccc2c2c1O[C@]1(CC2)C[C@H]2C(=O)N[C@]3(C(=O)NS(=O)(=O)C4(C)CC4)C[C@H]3/C=C\CCCCC[C@H](NC(=O)OC(C)C)C(=O)N2C1` [Example 105, propan-2-yl [(2R,6S,12Z,13aS,14aR,16aS)-5′-methyl-14a-{[(1-methylcyclopropyl)sulfonyl]carbamoyl}-5,16-dioxo-1,1′,2′,5,6,7,8,9,10,11,13a,14,14a,15,16,16a-hexadecahydrospiro[cyclopropa[e]pyrrolo[1,2-a][1,4]diazacyclopentadecine-2,3′-pyrano[2,3-c]quinolin]-6-yl]carbamate] were, in that order, 0.013 nM and 1.42 nM.
On to `Cc1nc2ccccc2c2c1O[C@@]1(C[C@H]3C(=O)N[C@]4(C(=O)NS(=O)(=O)C5(C)CC5)C[C@H]4/C=C\CCCCC[C@H](NC(=O)OCC(C)C)C(=O)N3C1)CC2(F)F` [Example 106, 2-methylpropyl [(2S,6S,12Z,13aS,14aR,16aS)-1′,1′-difluoro-5′-methyl-14a-{[(1-methylcyclopropyl)sulfonyl]carbamoyl}-5,16-dioxo-1,1′,2′,5,6,7,8,9,10,11,13a,14,14a,15,16,16a-hexadecahydrospiro[cyclopropa[e]pyrrolo[1,2-a][1,4]diazacyclopentadecine-2,3′-pyrano[2,3-c]quinolin]-6-yl]carbamate], for which half-maximal inhibition in experiment [1] (IC50) required 0.048 nM. For the same compound, the EC50 in the experiment on HCV genotype 1b replicon turned out to be 3.21 nM.
